Measured values published in US20240116951A1, “HETEROCYCLIC COMPOUNDS AND USES THEREOF” (Kumquat Biosciences Inc., priority 2022, published 2024).

Legend:
Type in all cases: binding
KRAS G12D = target: T1, KRAS G12D (Homo sapiens, UniProt P01116, G12D); assay: HTRF assay of K-Ras G12D interaction with SOS1 (PPI-HTRF); conditions: HTRF, 5 nM KRAS G12D; read-out: PPI-HTRF-5 nM KRAS G12D
T1 construct: made in house; host or cells: E. coli, e.g. BL21 (DE3)
From the text: (§1) This assay can be also used to assess a selective inhibition or reduction of signaling output of a mutant Ras protein relative to a wildtype, or relative to a different mutant Ras protein. For example, the equilibrium interaction of wildtype Kras or K-Ras mutant (e.g., wildtype or a mutant thereof including those mentioned in Example 4) with SOS1 (e.g., hSOS1) can be assessed as a proxy or an indication for a subject compound's ability to bind and inhibit Ras protein. HTRF assay detects from (i) a fluorescence resonance energy transfer (FRET) donor (e.g., antiGST-Europium) that is bound to GST-tagged K-Ras mutant to (ii) a FRET acceptor (e.g., anti-6His-XL665) bound to a His-tagged hSOS1.
(§2) The assay buffer can contain ˜5 mM HEPES pH 7.4, ˜150 mM NaCl, ˜1 mM DTT, 0.05% BSA and 0.0025% (v/v) Igepal. A Ras working solution is prepared in an assay buffer containing typically a suitable amount of the protein construct (e.g., GST-tagged K-Ras mutant) and the FRET donor (e.g., antiGST-Eu(K) from Cisbio, France). A SOS1 working solution is prepared in an assay buffer containing suitable amount of the protein construct (e.g., His-hSOS1) and the FRET acceptor (e.g., anti-6His-XL665 from Cisbio, France). A suitable amount of the protein construct will depend on the range of activity or range of IC50 values being detected or under investigation. For detecting IC50 within a range of 500 nM, the protein constructs of the same range of molarity can be utilized. […] A fixed volume of DMSO with or without test compound is transferred into a 384-well plate. Ras working solution is added to all wells of the test plate. SOS1 working solution is added to all wells except for those that are subsequently filled the inhibitor control solution. Upon incubation for about 10 minutes or longer, the fluorescence is measured with a M1000Pro plate reader (Tecan) using HTRF detection (excitation 337 nm, emission 1: 620 nm, emission 2: 665 nm). Compounds are tested in duplicates at different concentrations (for example, 10 μM, 2.5 μM, 0.63 μM, 0.16 μM, 0.04 μM, 0.01 μM test compound). The ratiometric data (i.e., emission 2 divided by emission 1) is used to calculate IC50 values against Ras using GraphPad Prism (GraphPad software). Following this general procedure, samples were tested with or without a subject compound disclosed herein including compounds exemplified in Table 1 to assess their abilities to inhibit a mutant K-Ras relative to another mutant K-Ras or wildtype K-Ras. Signaling output measured in terms of IC50 values can be obtained, a ratio of IC50 against one mutant relative to another mutant can be calculated. For instance, a selective reduction of K-Ras G12D signaling output can be evidenced by a ratio greater than one. In particular, a selective reduction of K-Ras G12D signaling relative to K-Ras WT signaling is evidenced as the ratio of IC50 (against K-Ras WT) to IC50 (against K-Ras G12D) is greater than 1.

KRAS WT = target: T2, KRAS WT (Homo sapiens, UniProt P01116); assay: HTRF assay of wildtype K-Ras interaction with SOS1 (PPI-HTRF); conditions: HTRF, 5 nM KRAS WT; read-out: PPI-HTRF-5 nM KRAS WT
T2 construct: made in house; host or cells: E. coli, e.g. BL21 (DE3)
From the text: as §1, §2

KRAS G12S = target: T3, KRAS G12S (Homo sapiens, UniProt P01116, G12S); assay: HTRF assay of K-Ras G12S interaction with SOS1 (PPI-HTRF); conditions: 5 nM KRAS G12S, read-out: PPI-HTRF-5 nM KRAS G12S
T3 construct: made in house; host or cells: E. coli, e.g. BL21 (DE3)
From the text: as §1, §2

T1 sequence (P01116 1-188 isoform P01116-2 G12D): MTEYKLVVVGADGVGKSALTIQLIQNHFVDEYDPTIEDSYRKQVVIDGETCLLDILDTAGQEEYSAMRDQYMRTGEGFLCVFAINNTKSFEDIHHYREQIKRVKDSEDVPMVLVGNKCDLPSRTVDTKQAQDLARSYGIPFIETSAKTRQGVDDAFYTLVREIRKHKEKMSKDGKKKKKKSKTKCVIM
T3 sequence (P01116 1-188 isoform P01116-2 G12S): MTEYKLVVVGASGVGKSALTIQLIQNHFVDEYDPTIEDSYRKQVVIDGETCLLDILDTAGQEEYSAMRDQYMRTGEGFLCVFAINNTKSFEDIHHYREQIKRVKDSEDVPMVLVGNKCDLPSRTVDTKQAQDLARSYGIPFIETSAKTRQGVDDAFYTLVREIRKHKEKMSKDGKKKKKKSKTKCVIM
T2 sequence (P01116 1-188 isoform P01116-2): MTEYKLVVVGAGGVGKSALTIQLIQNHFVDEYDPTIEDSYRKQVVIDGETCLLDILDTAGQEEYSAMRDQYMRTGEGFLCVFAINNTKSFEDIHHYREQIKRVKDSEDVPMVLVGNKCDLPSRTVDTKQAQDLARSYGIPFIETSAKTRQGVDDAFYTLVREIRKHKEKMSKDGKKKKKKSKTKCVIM

SMILES	IC50 (KRAS G12D) [µM]	IC50 (KRAS WT) [µM]	IC50 (KRAS G12S) [µM]
N#Cc1c(N)sc2c(F)ccc(-c3c(Cl)cc4c(N5CC[C@@]6(CCN6C(=O)n6cnc(C(F)F)n6)C5)nc(OC[C@@]56CCCN5C[C@H](F)C6)nc4c3F)c12 (atropisomer, axis not shown; (aS)) [Compound 278, 2-amino-4-((R)-6-chloro-4-((R)-1-(3-(difluoromethyl)-1H-1,2,4-triazole-1-carbonyl)-1,6-diazaspiro[3.4]octan-6-yl)-8-fluoro-2-(((2R,7aS)-2-fluorotetrahydro-1H-pyrrolizin-7a(5H)-yl)methoxy)quinazolin-7-yl)-7-fluorobenzo[b]thiophene-3-carbonitrile]	< 5	< 5	< 5
N#Cc1c(N)sc2c(F)ccc(-c3c(Cl)cc4c(N5CC[C@@]6(CCN6C(=O)n6cnc(F)n6)C5)nc(OC[C@@]56CCCN5C[C@H](F)C6)nc4c3F)c12 (atropisomer, axis not shown; (aS)) [Compound 281, (R)-2-amino-4-(6-chloro-8-fluoro-4-((R)-1-(3-fluoro-1H-1,2,4-triazole-1-carbonyl)-1,6-diazaspiro[3.4]octan-6-yl)-2-(((2R,7aS)-2-fluorotetrahydro-H-pyrrolizin-7a(5H)-yl)methoxy)quinazolin-7-yl)-7-fluorobenzo[b]thiophene-3-carbonitrile]	< 5	< 5	< 5
Cc1ncn(C(=O)N2CC[C@@]23CCN(c2nc(OC[C@@]45CCCN4C[C@H](F)C5)nc4c(F)c(-c5ccc(F)c6sc(N)c(C#N)c56)c(Cl)cc24)C3)n1 (atropisomer, axis not shown; (aS)) [Compound 338, (R)-2-amino-4-(6-chloro-8-fluoro-2-(((2R,7aS)-2-fluorotetrahydro-1H-pyrrolizin-7a(5H)-yl)methoxy)-4-((R)-1-(3-methyl-1H-1,2,4-triazole-1-carbonyl)-1,6-diazaspiro[3.4]octan-6-yl)quinazolin-7-yl)-7-fluorobenzo[b]thiophene-3-carbonitrile]	< 5	< 5	< 5
N#Cc1c(N)sc2c(F)ccc(-c3c(Cl)cc4c(N5CCCCC6(CCCN6C(=O)n6cncn6)C5)nc(OC[C@@]56CCCN5C[C@H](F)C6)nc4c3F)c12 (mixture of isomers) [Compound 349, 4-(4-(1-(1H-1,2,4-triazole-1-carbonyl)-1,7-diazaspiro[4.6]undecan-7-yl)-6-chloro-8-fluoro-2-(((2R,7aS)-2-fluorotetrahydro-1H-pyrrolizin-7a(5H)-yl)methoxy)quinazolin-7-yl)-2-amino-7-fluorobenzo[b]thiophene-3-carbonitrile]	< 5	< 5	< 5
N#Cc1c(N)sc2c(F)ccc(-c3c(Cl)cc4c(N5CC[C@@]6(CCN6C(=O)n6cncn6)C5)nc(OC[C@@]56CCCN5C[C@H](F)C6)nc4c3F)c12 (single isomer, unassigned) [Compound 234]	< 5	< 5	< 5
C[C@H](Oc1nc(N2CC[C@@]3(CCN3C(=O)n3cncn3)C2)c2cc(Cl)c(-c3ccc(F)c4sc(N)c(C#N)c34)c(F)c2n1)[C@@H]1CCCN1C (single isomer, unassigned) [Compound 299]	< 5	< 5	< 5
C[C@H](Oc1nc(N2CCCC3(CCN3C(=O)n3cncn3)C2)c2cc(Cl)c(-c3ccc(F)c4sc(N)c(C#N)c34)c(F)c2n1)[C@@H]1CCCN1C (stereo partly drawn) [Compound 201, 4-(4-(1-(1H-1,2,4-triazole-1-carbonyl)-1,6-diazaspiro[3.5]nonan-6-yl)-6-chloro-8-fluoro-2-((S)-1-((S)-1-methylpyrrolidin-2-yl)ethoxy)quinazolin-7-yl)-2-amino-7-fluorobenzo[b]thiophene-3-carbonitrile]	< 5	< 5	< 5
Nc1nc2c(-c3c(Cl)cc4c(N5CCCC6(CCN6)C5)nc(OC[C@@]56CCCN5C[C@H](F)C6)nc4c3F)ccc(F)c2s1 (stereo partly drawn) [Compound 202, 4-(6-chloro-8-fluoro-2-(((2R,7aS)-2-fluorotetrahydro-1H-pyrrolizin-7a(5H)-yl)methoxy)-4-(1,6-diazaspiro[3.5]nonan-6-yl)quinazolin-7-yl)-7-fluorobenzo[d]thiazol-2-amine]	< 5	< 5	< 5
CN(C)C1CN(c2nc(N3CCC4(CCN4C(=O)n4cncn4)C3)c3cc(Cl)c(-c4ccc(F)c5sc(N)c(C#N)c45)c(F)c3n2)C1 (stereo not drawn) [Compound 203, 4-(4-(1-(1H-1,2,4-triazole-1-carbonyl)-1,6-diazaspiro[3.4]octan-6-yl)-6-chloro-2-(3-(dimethylamino)azetidin-1-yl)-8-fluoroquinazolin-7-yl)-2-amino-7-fluorobenzo[b]thiophene-3-carbonitrile]	> 5	< 5	< 5
Nc1nc2c(-c3ccc4c(N5CCC6(CCN6)CC5)nc(OC[C@@]56CCCN5C[C@H](F)C6)nc4c3F)ccc(F)c2s1 [Compound 204, 7-fluoro-4-(8-fluoro-2-(((2R,7aS)-2-fluorotetrahydro-1H-pyrrolizin-7a(5H)-yl)methoxy)-4-(1,7-diazaspiro[3.5]nonan-7-yl)quinazolin-7-yl)benzo[d]thiazol-2-amine]	< 5	< 5	< 5
Nc1nc2c(-c3c(Cl)cc4c(N5CC6(CNCCN6)C5)nc(OC[C@@]56CCCN5C[C@H](F)C6)nc4c3F)ccc(F)c2s1 [Compound 205, 4-(6-chloro-8-fluoro-2-(((2R,7aS)-2-fluorotetrahydro-1H-pyrrolizin-7a(5H)-yl)methoxy)-4-(2,5,8-triazaspiro[3.5]nonan-2-yl)quinazolin-7-yl)-7-fluorobenzo[d]thiazol-2-amine]	< 5	< 5	< 5
C[C@H](Oc1nc(N2CCC3(CCN3C(=O)[C@@H]3C[C@H]3C#N)C2)c2cc(Cl)c(-c3ccc(F)c4sc(N)c(C#N)c34)c(F)c2n1)[C@@H]1CCCN1C (stereo partly drawn) [Compound 206, 2-amino-4-(6-chloro-4-(1-((1R,2R)-2-cyanocyclopropane-1-carbonyl)-1,6-diazaspiro[3.4]octan-6-yl)-8-fluoro-2-((S)-1-((S)-1-methylpyrrolidin-2-yl)ethoxy)quinazolin-7-yl)-7-fluorobenzo[b]thiophene-3-carbonitrile]	< 5	< 5	< 5
C[C@H](Oc1nc(N2CCC3(CCN3C(=O)n3cncn3)C2)c2cc(Cl)c(-c3ccc(F)c4sc(N)c(C#N)c34)c(F)c2n1)[C@@H]1CCCN1C (stereo partly drawn) [Compound 207, 4-(4-(1-(1H-1,2,4-triazole-1-carbonyl)-1,6-diazaspiro[3.4]octan-6-yl)-6-chloro-8-fluoro-2-((S)-1-((S)-1-methylpyrrolidin-2-yl)ethoxy)quinazolin-7-yl)-2-amino-7-fluorobenzo[b]thiophene-3-carbonitrile]	< 5	< 5	< 5
N#Cc1c(N)sc2c(F)ccc(-c3c(Cl)cc4c(N5CCCC6(CCCN6C(=O)n6cncn6)C5)nc(OC[C@@]56CCCN5C[C@H](F)C6)nc4c3F)c12 (stereo partly drawn) [Compound 208, 4-(4-(1-(1H-1,2,4-triazole-1-carbonyl)-1,7-diazaspiro[4.5]decan-7-yl)-6-chloro-8-fluoro-2-(((2R,7aS)-2-fluorotetrahydro-1H-pyrrolizin-7a(5H)-yl)methoxy)quinazolin-7-yl)-2-amino-7-fluorobenzo[b]thiophene-3-carbonitrile]	< 5	< 5	< 5
